Assay results published in patent publication US20160280651A1, “COMPOUNDS THAT INDUCE ABA RESPONSES” (THE REGENTS OF THE UNIVERSITY OF CALIFORNIA, priority 2013, published 2016).

Key:
[1] = test system: ABI1 with PYR/PYL receptors; experiment: Receptor-mediated PP2C inhibition assay with ABI1, Example 1; type: biochemical, Arabidopsis; conditions: 10 μM; receptors PYR1, PYL1, PYL2, PYL3 and PYL5
Protocol: FIG. 2A-FIG. 2C. Novel ABA agonists inhibit PPC2 activity through multiple PYR/PYL. (A) Chemical structure of naturally occurring (+)-ABA and selected ABA agonists. (B) and (C) HAB1, ABU, and ABI2 PP2C enzyme activity based ABA-agonist assays for various receptors in the presence or absence of 10 μM each test chemical.
HAB1 and PYL proteins were expressed and purified as described previously (Park S Y, et al. (2009) Abscisic Acid Inhibits Type 2C Protein Phosphatases via the PYR/PYL Family of START Proteins. Science 324(5930):1068-1071), with minor modifications. To obtain GST-HAB1, -ABI1 and -ABI2 fusion proteins, the HAB1 cDNA was cloned into pGex-2T whereas ABI1 and ABI2 cDNAs were cloned into the vector pGex-4T-1. […] After 16 hours incubation at 15° C., cells were harvested and recombinant proteins were purified on glutathione agarose as described previously (Park S Y, et al. (2009). To obtain 6×His-PYL receptor fusion proteins, receptor cDNAs for all 13 ABA receptors were cloned into the vector pET28 and expressed and purified as described previously (Mosquna A, et al. (2011) Potent and selective activation of abscisic acid receptors in vivo by mutational stabilization of their agonist-bound conformation. PNAS 108(51):20838-20843); this yielded soluble and functional protein (assessed using receptor-mediated PP2C inhibition assays) for all receptors except PYL7, PYL11 and PYL12. […]

Arabidopsis plants = experiment: Transpirational water loss of detached leaves; type: in vivo; conditions: 25 μM spray
Protocol: Physiological assays were performed on Arabidopsis plants grown at 22±2° C. and relative humidity (RH) 45±10% under a 16/8-h light/dark cycle. For transpirational water loss analyses in Arabidopsis, plants were pre-treated by aerosol spray of 4 ml solution containing 25 μM compound and 0.05% Tween-20. 12 4-week old plants were sprayed per compound or control analyzed. After overnight pre-treatment with compounds, the aerial portions were detached from roots, and their fresh weight measured at 20 min intervals over a 2 hour time period. To measure stomatal aperture, plants were pre-treated with compounds as described above, covered with plastic lids to maintain high RH and after overnight pre-treatment leaf epidermal impressions were obtained using Suzuki's Universal Micro-Printing (SUMP) method using SUMP impression solution with SUMP B plates (SUMP Laboratory). The leaf impressions were analyzed by light microscopy and stomatal apertures were determined from the pore widths using ImageJ 1.43v software (National Institutes of Health, USA). […] Pots were covered in Parafilm to so that the water loss measured was transpiration mediated. Soil water content % was determined by measuring pot weight and computed by removing dry soil weight from total weight.

HVA1 and HvDRF1 = experiment: Quantitative RT-PCR of ABA-responsive genes in barley; type: in vivo
Text: FIG. 13A-FIG. 13E. LC66C6 modulates ABA responses in diverse species. Germination inhibition (A) and transpirational water loss in detached leaves 2-hours after detachment (B) in response to compounds shown. The expression of ABA-responsive marker genes in Soybean (C), Barley (D) and Maize (E) after application of chemicals. D, P, L and A indicate DMSO, pyrabactin, LC66C6 and (+)-ABA, respectively.
Total RNA was isolated using Plant RNA purification reagent (Invitrogen, USA) according to the manufacturer's instructions. cDNA was synthesized from 1 μg of total RNA using the QantiTec reverse transcription kit (Qiagen, USA). Real-time PCR using Maxima® SYBR Green/Fluorescein qPCR Master Mix (Fermentas) was performed with the iQ5 real-time PCR detection system (Bio-Rad, Hercules, Calif.). The relative amounts of target mRNAs were determined using the relative standard curve method and were normalized by relative amount of internal control mRNA. Biological triplicate experiments were performed.

aba2 mutant plants = experiment: Rescue of growth defects of ABA-deficient mutant aba2; type: in vivo, Arabidopsis; conditions: 25 μM sprayed two times a day for two weeks; versus DMSO
Protocol: FIG. 16A-FIG. 16B. Application of LC66C6 can rescue growth defects observed in the ABA-deficient mutant aba2. Chemical solution (25 μM) was sprayed on 14-day-plants two times per day for 2 weeks. The image (A) and fresh weight (B) were obtained from 4-week plants.
In this example, 14-day old wild-type and aba2 mutant plants were sprayed with a solution containing 25 μM of agonist two times a day for two weeks. Images and fresh weight were obtained from 4 week old plants.

## CCCN1C(=O)CCc2cc(NS(=O)(=O)Cc3ccc(C)cc3)ccc21 [LC66C6]
[1]
  PP2C inhibition of ABI1: > 70%
Arabidopsis plants; abi1-1 mutant
  Transpirational water loss in detached leaves: did not reduce transpirational water loss
Arabidopsis plants; wild-type and aba2 mutant
  Transpirational water loss in detached leaves: reduced the amount of transpirational water loss
HVA1 and HvDRF1
  Expression of ABA-responsive genes HVA1 and HvDRF1: moderately induces
aba2 mutant plants
  Size of aba2 mutant plants: significantly increased the size of the mutant plants
